This passage reports solubility results from patent publication US6642411B1, “Compounds and compositions for delivering active agents” (Emisphere Technologies, Inc., priority 1998, dated 2003).

A word on the solubility: it is the concentration that dissolves in the medium under given conditions.

The series can be described thus: Solubility of the carrier compound. Format: physicochemical.

Converted amounts (≈) assume the structure as drawn. Where two headings read alike, the source gives them in different places.

For `CC(C(=O)[O-])c1ccc(NC(=O)c2ccccc2O)cc1.[Na+]` (centres unmarked) [Example 2, sodium 2-(4-(N-salicyloyl)aminophenyl)propionate], the solubility (clear solution, pH=6.85) worked out at 200 mg/mL.
`CC(C(=O)O)c1ccc(NC(=O)c2ccccc2O)cc1` (centres unmarked) [Example 1, 2-(4-(N-salicyloyl)aminophenyl)propionic acid]: the solubility (aqueous NaOH solution, aqueous buffer, thermodynamic from solid, 200 mg+350 μl 2N NaOH+650 μl H2O, pH 7.67, read-out: Solubility) was 200 mg/mL (≈ 701 mM).
